This is an account of results in patent US4195172A.

Each structure is given as a SMILES string. Structures can show the parent of a compound that is named as a salt. Where two headings read alike, the source gives them in different places.

One series deals with Aspergillus fumigatus. The experiment in a line: Protection of mice in generalized aspergillosis. The format is in vivo. Particulars: for ED50: read-out: Average protective DP50 doses, generalized aspergillosis. The procedure: (§1) Average protective DP50 doses
(§2) 24 hours in a case of genera-

A further series concerns Candida tropicalis. The experiment in a line: Sensitivity of Candida tropicalis strains. In kind it is cell-based. From the text: (§3) There is a different sensitivity of different strains, for example Candida sp. to the N-methylglucamine salt of the N-glycosyl derivative of amphotericin B and Fungizone. Statistically, the amount of to Fungizone insensitive strains is much higher than the amount of to N-methylglucaminesalt of the said derivative insensitive strains. This especially concerns Candida albicans strains ZM, HM, and 1/75, Candida tropicalis strains JD and 20/75 and Candida krusei strains TS and 16/75, which are insensitive to Fungizone, but sensitive to N-methylglucamine salt of N-glycosyl derivative of amphotericin B.

In another series the test system is Candida krusei. The experiment in a line: Sensitivity of Candida krusei strains. In kind it is cell-based.
Source text: as §3

A short description of series [1]: Selective toxicity: hemolysis of human erythrocytes versus potassium ion effluence from Saccharomyces cerevisiae cells. The settings on record: human erythrocytes vs saccharomyces cerevisiae; 50% hemolysis of human erythrocytes / 50% potassium effluence from Saccharomyces cerevisiae cells; column head is drawing 2; read-out: Selective toxicity index EH50/DK50. The format is cell-based. From the text:
(§4) The data representing the selective toxicity are also more advantageous for the N-methylglucamine salt of N-glycosyl derivatives of polyene macrolides than for Fungizone. The indices of selective toxicity EK50 /DK50 and EH50 /DK50, illustrating the ratio of the minimal antibiotic concentration causing 50% effluence of the potassium ions from erythrocytes of human blood/EK50 /and the minimal concentration of antibiotic causing 50% hemolysis of erythrocytes/EH50 /to the minimal antibiotic concentration causing 50% effluence of the potassium ions from Saccharomyces cerevisiae cells/DK50 /are compared in Table 6.

A short description of series [2]: Acute toxicity on intravenous administration in mice. Particulars: mouse, in vivo, administered intravenously, read-out: DL50 (the source's name).
Series [3] can be described thus: Stability on storage at different temperatures within 6 months (retained biological activity). Particulars: storage within 6 months, initial biological activity assumed as 100%, 262800 min.
The subject of series [4] is Candida albicans. The experiment in a line: Sensitivity of Candida albicans strains. The format is cell-based.
Source text: as §3

In series [5] the test system is Candida albicans. The experiment in a line: Experimental chemotherapy of Candida albicans infected mice. The settings on record: Fungizone = 1. The format is in vivo. From the text:
The relative activity index representing the antibiotic activity in experimental chemotherapy of Candida albicans infected mice is much more advantageous for the N-methylglucamine salts of the N-glycosyl derivatives of polyene macrolides than for Fungizone/Table 4/.

Series [6] has as its system Torula sp., Geotrichum candidum and Cryptococcus neoformans. The experiment in a line: In vitro antifungal activity in comparison with Fungizone (in words). In kind it is cell-based. From the text:
The in vitro activities of the N-methylglucamine salts of the N-glycosyl derivative of amphotericin B and Fungizone against some fungi are compared in Table 3.

Series [7] is described as follows: Selective toxicity: potassium ion effluence from human erythrocytes versus Saccharomyces cerevisiae cells. The format is cell-based. The settings on record: human erythrocytes vs saccharomyces cerevisiae; 50% effluence of potassium ions from human erythrocytes / from Saccharomyces cerevisiae cells; column head is drawing 1; read-out: Selective toxicity index EK50/DK50.
Source text: as §4

A further series has as its system Geotrichum candidum. The experiment in a line: Protection of mice in generalized geotrichosis. The format is in vivo. Particulars: for in vivo activity compared with Fungizone (in words), geotrichosis: generalized geotrichosis caused by Geotrichum candidum; for ED50: read-out: Average protective DP50 doses, generalized geotrichosis. The method, then:
as §1, §2

Series [8] can be described thus: Presence of antibiotic in serum after intravenous administration to rats. The format is in vivo. From the text:
In intravenous administration to rats of N-methylglucamine salts of polyene macrolide N-glycosyl derivatives as compared to Fungizone the effect is much more advantageous for the N-methylglucamine salts because the presence of antibiotic in the serum after administration can be found longer that in the case of Fungizone/Table 5/.

The conditions of series [9]: prior art; cited from earlier work.
Series [10] in a line: Biological activity in U/mg. The format is cell-based.
Another series is described as follows: pH of 1% water solution. The format is physicochemical.
Where [11] appears, read: aspergillosis caused by Aspergillus fumigatus.

For the compound `C[C@@H]1[C@H](O)[C@@H](C)/C=C/C=C/C=C/C=C/C=C/C=C/C=C/[C@H](O[C@@H]2O[C@H](C)[C@@H](O)[C@H](NC3O[C@H](CO)[C@@H](O)[C@H](O)[C@H]3O)[C@@H]2O)C[C@@H]2O[C@](O)(C[C@@H](O)C[C@@H](O)[C@H](O)CC[C@@H](O)C[C@@H](O)CC(=O)O[C@H]1C)C[C@H](O)[C@H]2C(=O)O` (stereo partly shown) [N-methylglucamine salt of N-glycosyl derivative of amphotericin B], in the series on Aspergillus fumigatus (setting [11]), the “in vivo activity compared with Fungizone (in words), aspergillosis” value is on record as “corresponds to activity of Fungizone”. For the same compound, the ED50 in the series on Aspergillus fumigatus (mice, aspergillosis caused by Aspergillus fumigatus) came out at 22.7 mg/kg; in the series on Geotrichum candidum (mice, geotrichosis caused by Geotrichum candidum) it was 17.9 mg/kg. The sensitivity of strain result in the series with Candida tropicalis (Candida tropicalis strain 20/75), with Candida tropicalis (Candida tropicalis strain JD), in the series on Candida krusei (Candida krusei strain 16/75), with Candida krusei (Candida krusei strain TS), in the series with Candida albicans [4] (Candida albicans strain 1/75) and in the series on Candida albicans [4] (Candida albicans strain HM) was “sensitive” in each case. The sensitivity of strain result in the series on Candida albicans [4] (Candida albicans strain ZM) is on record as “sensitive”. In the series “physchem”, this compound gave a share remaining at 4380 h of 81.2%. For the same compound, the selectivity ratio in series [1] was 24; in series [7], 1.37. In [2], the LD50 lay within 12.1 to 14.3 mg/kg. Moreover, the “Biological activity in % at +37° C.” value in series [3] (+37° C.) is 77.0%. The “Biological activity in % at +50° C.” value in series [3] (+50° C.) amounted to 79.8%. Also, in series [3] (RT), the “Biological activity in % at RT” value is listed as 83.1%. In addition, the “Relative activity index in Candida albicans mice infection” value in the series on Candida albicans [5] stood at 2.35. Also, the “antifungal activity in comparison with Fungizone (in words)” value in series [6] is recorded as “exhanced antifungal activity”. Moreover, the “in vivo activity compared with Fungizone (in words), geotrichosis” value with Geotrichum candidum is “corresponds to activity of Fungizone”. In addition, the “Time of the presence of an antibiotic in serum after 1/5 DL50 dose administration” value in series [8] is 15 min.

Consider `COC(=O)[C@H]1[C@@H]2C[C@@H](O[C@@H]3O[C@H](C)[C@@H](O)[C@H](N)[C@@H]3O)/C=C/C=C/C=C/C=C/C=C/C=C/C=C/[C@H](C)[C@@H](O)[C@@H](C)[C@H](C)OC(=O)C[C@H](O)C[C@H](O)CC[C@@H](O)[C@H](O)C[C@H](O)C[C@](O)(C[C@@H]1O)O2` [hydrochloride of methyl esters of amphotericin B], for which the “solubility in water (in words, from literature)” value in series [9] is reported as “forms in water merely micelle”.

Turning to `C[C@@H]1[C@H](O)[C@@H](C)/C=C/C=C/CC/C=C/C=C/C=C/C=C/[C@H](O[C@@H]2O[C@H](C)[C@@H](O)[C@H](NC3O[C@H](CO)[C@@H](O)[C@H](O)[C@H]3O)[C@@H]2O)C[C@@H]2O[C@](O)(C[C@@H](O)[C@H](O)CC[C@@H](O)C[C@@H](O)C[C@@H](O)CC(=O)O[C@H]1C)C[C@H](O)[C@H]2C(=O)O` (stereo partly shown) [N-methylglucamine salt of N-glycosyl derivative of nystatin] [listing 1 of 2 here], in the series with Aspergillus fumigatus (setting [11]), the “in vivo activity compared with Fungizone (in words), aspergillosis” value is reported as “higher activity than Fungizone”. In addition, the Solubility in water in the series “Solubility in water” was more than 15%. Further, the Biological activity in series [10] turned out to be 1780 U/mg. In “pH of 1% water solution”, the “pH 1% water solution” value was determined as 8.3. The “Relative activity index in Candida albicans mice infection” value in the series on Candida albicans [5] worked out at 2.41. In the series with Geotrichum candidum, the “in vivo activity compared with Fungizone (in words), geotrichosis” value is on record as “higher activity than Fungizone”. For the same compound, the “Time of the presence of an antibiotic in serum after 1/5 DL50 dose administration” value in series [8] was determined as 30 min.

Consider `C[C@@H]1[C@H](O)[C@@H](C)/C=C/C=C/CC/C=C/C=C/C=C/C=C/[C@H](O[C@@H]2O[C@H](C)[C@@H](O)[C@H](NC3O[C@H](CO)[C@@H](O)[C@H](O)[C@H]3O)[C@@H]2O)C[C@@H]2O[C@](O)(C[C@@H](O)[C@H](O)CC[C@@H](O)C[C@@H](O)C[C@@H](O)CC(=O)O[C@H]1C)C[C@H](O)[C@H]2C(=O)O` (stereo partly shown) [Sodium salt of N-glycosyl derivative of nystatin] [reference compound], for which the Solubility in water in “Solubility in water” is listed as 4-10%. In addition, the Biological activity in series [10] was found to be 1296 U/mg. The “pH 1% water solution” value in the series “pH of 1% water solution” is given as 9.7.

`C[C@@H]1[C@H](O)[C@@H](C)/C=C/C=C/CC/C=C/C=C/C=C/C=C/[C@H](O[C@@H]2O[C@H](C)[C@@H](O)[C@H](NC3O[C@H](CO)[C@@H](O)[C@H](O)[C@H]3O)[C@@H]2O)C[C@@H]2O[C@](O)(C[C@@H](O)[C@H](O)CC[C@@H](O)C[C@@H](O)C[C@@H](O)CC(=O)O[C@H]1C)C[C@H](O)[C@H]2C(=O)O` (stereo partly shown) [N-methylglucamine salt of N-glycosyl derivative of nystatin] [listing 2 of 2 here]: the ED50 was found to be 6.28 mg/kg with Aspergillus fumigatus (Aspergillus fumigatus) and 4.49 mg/kg in the series with Geotrichum candidum (Geotrichum candidum). The values for the selectivity ratio in series [1] and in [7] were 45 and 17.3, respectively. In addition, the LD50 in series [2] was 19 mg/kg.
